The values below come from PubChem BioAssay (NCI).

Some test systems named below: OVCAR-5 ovarian; HCT-116 colon; NCI-H226 lung; OVCAR-3 ovarian; OVCAR-4 ovarian; SN12C renal; NCI-H522 lung; BT-549 breast; MCF7 breast; DU-145 prostate.
Common to all, as to assay: growth of human tumour cells (NCI), 48 h

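Where inhibition never reached the appropriate level, the endpoint shown equals the highest concentration tested. Otherwise, values were interpolated linearly from a five-concentration, 48-hour dose response in 96-well plates. Here, GI50 denotes the concentration required for 50% inhibition of growth. TGI is the concentration that stops growth completely.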

In the case of `CCCCn1c(-c2ccccc2)cs/c1=N\N=C1C=C(C(C)(C)C)C(=O)C(C(C)(C)C)=C1`, the TGI in the test with OVCAR-5 ovarian, in the test with HCT-116 colon, in the test on NCI-H226 lung, in the test on OVCAR-3 ovarian, in the test with OVCAR-4 ovarian and with SN12C renal was > 100 µM each time.

With `Cc1ccc(S(=O)(=O)NC(=O)Nc2c(S(N)(=O)=O)cc(S(N)(=O)=O)c(Cl)c2Cl)cc1`, the TGI in the test with OVCAR-5 ovarian, in the test with HCT-116 colon, in the test on NCI-H226 lung, with OVCAR-3 ovarian, in the test on OVCAR-4 ovarian and in the test with NCI-H522 lung was > 100 µM throughout. The TGI with BT-549 breast, in the test on MCF7 breast and in the test on SN12C renal was > 100 µM in each case.

For `O=[N+]([O-])c1ccc(CSc2nn(Cc3ccc([N+](=O)[O-])cc3)cc3ncnc2-3)cc1`, the TGI in the test on OVCAR-5 ovarian was > 100 µM; in the test on HCT-116 colon, > 100 µM; in the test on NCI-H226 lung, > 100 µM; in the test with OVCAR-3 ovarian, > 100 µM; in the test with OVCAR-4 ovarian it was > 100 µM; in the test with NCI-H522 lung, 67.8 µM. For the same compound, the TGI in the test on BT-549 breast is 84.8 µM; with MCF7 breast, > 100 µM; in the test on SN12C renal, > 100 µM.

`CC(=O)Nc1ccc(-c2nnc(SCC(=O)Nc3cccc(C)c3)o2)cc1`: the TGI came out at 26.7 µM in the test with OVCAR-5 ovarian; 24.1 µM in the test on HCT-116 colon; 30.8 µM in the test on NCI-H226 lung; 24.2 µM in the test on OVCAR-3 ovarian; 29.8 µM with OVCAR-4 ovarian; 16.7 µM in the test with NCI-H522 lung. This compound also displayed a TGI in the test with SN12C renal of 28.5 µM.

On to `O=C(NN1C(=O)C(Cl)C1c1cccc(O)c1)c1ccccc1O` (centres undefined), for which the TGI in the test with HCT-116 colon, in the test with NCI-H226 lung, with OVCAR-3 ovarian, in the test with OVCAR-4 ovarian, in the test on NCI-H522 lung and in the test with SN12C renal was > 100 µM each time.

Turning to `O=C1CC(c2ccc(Cl)cc2)C2(C(=O)NC(=S)NC2=O)C(c2ccc(Cl)cc2)C1` (centres undefined), the TGI in the test on OVCAR-5 ovarian was 47.7 µM; in the test with HCT-116 colon, 45.5 µM; with NCI-H226 lung, 66.9 µM; with OVCAR-3 ovarian it was 33.9 µM; with OVCAR-4 ovarian, 37.9 µM; with DU-145 prostate, > 100 µM. For the same compound, the TGI was determined as 32.1 µM with MCF7 breast and 40.6 µM in the test with SN12C renal.

Take `CC(=O)O[C@@H]1[C@H](OC2CCCCC2(c2ccccc2)c2ccccc2)O[N+]([O-])=CC12CCCCC2` (some centres undefined): the TGI in the test on OVCAR-5 ovarian worked out at 29.4 µM; with HCT-116 colon, 32 µM; in the test on NCI-H226 lung, 27.8 µM; with OVCAR-3 ovarian, 28.1 µM; in the test on NCI-H522 lung it was 35.2 µM; in the test with DU-145 prostate it was 32 µM. The TGI with MCF7 breast amounted to 33.9 µM; in the test on SN12C renal, 35.4 µM.

Regarding `CC1(CO)C(O)CCC2(C)C1CCC1CC3CC12CCC3(O)CO` (centres undefined), the TGI in the test with OVCAR-5 ovarian is > 100 µM; in the test on HCT-116 colon, > 100 µM; in the test with NCI-H226 lung it was > 89.8 µM; in the test with OVCAR-3 ovarian, > 100 µM; in the test on OVCAR-4 ovarian, > 100 µM; with NCI-H522 lung, > 100 µM. The TGI in the test on MCF7 breast and with SN12C renal was > 100 µM in each case.

Turning to `O=S(=O)(O)c1ccc2c(N=Nc3cccc4ccccc34)c(O)ccc2c1`, the TGI in the test on OVCAR-5 ovarian, with HCT-116 colon, in the test on NCI-H226 lung, with OVCAR-3 ovarian, with OVCAR-4 ovarian and in the test with NCI-H522 lung was > 100 µM throughout. Further, the TGI in the test with BT-549 breast, in the test on DU-145 prostate and in the test on SN12C renal was > 100 µM in each case.

As for `c1ccc2c(c1)nnn2CNc1ccc(N2CCCCC2)cc1`, the TGI in the test on HCT-116 colon, in the test on NCI-H226 lung, in the test on OVCAR-3 ovarian, with OVCAR-4 ovarian, with NCI-H522 lung and in the test on SN12C renal was > 100 µM each time.

Take `COc1ccc(C=Nc2ccc(-c3nc4ccccc4s3)cc2)cc1OC`: the TGI in the test on OVCAR-5 ovarian was > 100 µM; in the test with HCT-116 colon it was > 100 µM; with NCI-H226 lung, 85.4 µM; in the test with OVCAR-3 ovarian, 51.9 µM; in the test with OVCAR-4 ovarian, > 100 µM; in the test on NCI-H522 lung, 47.4 µM. Further, the TGI in the test with BT-549 breast, with DU-145 prostate and in the test on SN12C renal was > 100 µM throughout.

With `Cn1c(N/N=C/c2ccccc2)nc(-c2ccc3c(c2)OCO3)c(C#N)c1=O`, the TGI in the test on OVCAR-5 ovarian is > 100 µM; in the test on HCT-116 colon it was > 100 µM; in the test with OVCAR-3 ovarian it was 90.6 µM; in the test on OVCAR-4 ovarian, > 100 µM; in the test on NCI-H522 lung, > 100 µM; with DU-145 prostate it was > 100 µM. Also, the TGI with MCF7 breast and in the test on SN12C renal was > 100 µM each time.

Turning to `O=C([CH-]C(=O)c1ccccc1)c1ccccc1.[C-]#[O+].[C-]#[O+].[Ir]`, the GI50 was > 100 µM in the test with OVCAR-5 ovarian; 33.3 µM in the test on NCI-H226 lung; > 100 µM with OVCAR-3 ovarian; > 100 µM with OVCAR-4 ovarian; 48.3 µM in the test on SN12C renal. Moreover, the TGI with OVCAR-5 ovarian, in the test on NCI-H226 lung, in the test with OVCAR-3 ovarian, in the test on OVCAR-4 ovarian and in the test with SN12C renal was > 100 µM throughout.

For the compound `CCC(=O)OC1CCn2c1nc1c2C(=O)C(C)=C(NC(C)=O)C1=O` (centres undefined), the TGI amounted to 3.39 µM with OVCAR-5 ovarian; 3.21 µM in the test with HCT-116 colon; 3.27 µM in the test on NCI-H226 lung; 0.572 µM in the test on OVCAR-3 ovarian; 1.67 µM with OVCAR-4 ovarian; 2.94 µM with NCI-H522 lung. Moreover, the TGI in the test with SN12C renal came to 3.19 µM.

Regarding `CC(NC(=O)Cc1ccc(OP(=O)(OCc2ccc([N+](=O)[O-])o2)N(C)CCCCCl)cc1)c1ccc(OCC2CCCCC2)c(C(N)=O)c1` (centres undefined), the TGI with OVCAR-5 ovarian turned out to be 8.78 µM; in the test on HCT-116 colon it was 4.52 µM; in the test on NCI-H226 lung it was 7.09 µM; in the test on OVCAR-3 ovarian, 3.75 µM; in the test with OVCAR-4 ovarian, 6.31 µM; in the test on NCI-H522 lung, 5.18 µM. The values for the TGI in the test on DU-145 prostate, with MCF7 breast and in the test with SN12C renal were 14.4 µM, 6.75 µM and 4.26 µM, respectively.
